According to patent publication US8577624B2, “Crystal structure of a plasma membrane proton pump” (Aarhus Universitet, priority 2007, dated 2013):

Experiments:
[1] = test system: plasma membrane H+-ATPases; conditions: vanadate in its plus 5 valence state; cited from earlier work
[2] = target: Sarcoplasmic Endoplasmic Reticulum Ca2+-ATPase (SERCA); conditions: blocking SERCA; cited from earlier work
[3] = target: T1, plasma membrane H+-ATPase (Arabidopsis thaliana, UniProt P19456); experiment: Inhibition of H+ ATPase ATP hydrolytic activity by platin and holmium ions (Pi production); type: biochemical; conditions: 20 mM Mops pH 6.5, 50 mM KCl, 8 mM MgCl2, 3 mM ATP; various concentrations; FIG. 12; numbers only in figure
T1 sequence (P19456 1-948): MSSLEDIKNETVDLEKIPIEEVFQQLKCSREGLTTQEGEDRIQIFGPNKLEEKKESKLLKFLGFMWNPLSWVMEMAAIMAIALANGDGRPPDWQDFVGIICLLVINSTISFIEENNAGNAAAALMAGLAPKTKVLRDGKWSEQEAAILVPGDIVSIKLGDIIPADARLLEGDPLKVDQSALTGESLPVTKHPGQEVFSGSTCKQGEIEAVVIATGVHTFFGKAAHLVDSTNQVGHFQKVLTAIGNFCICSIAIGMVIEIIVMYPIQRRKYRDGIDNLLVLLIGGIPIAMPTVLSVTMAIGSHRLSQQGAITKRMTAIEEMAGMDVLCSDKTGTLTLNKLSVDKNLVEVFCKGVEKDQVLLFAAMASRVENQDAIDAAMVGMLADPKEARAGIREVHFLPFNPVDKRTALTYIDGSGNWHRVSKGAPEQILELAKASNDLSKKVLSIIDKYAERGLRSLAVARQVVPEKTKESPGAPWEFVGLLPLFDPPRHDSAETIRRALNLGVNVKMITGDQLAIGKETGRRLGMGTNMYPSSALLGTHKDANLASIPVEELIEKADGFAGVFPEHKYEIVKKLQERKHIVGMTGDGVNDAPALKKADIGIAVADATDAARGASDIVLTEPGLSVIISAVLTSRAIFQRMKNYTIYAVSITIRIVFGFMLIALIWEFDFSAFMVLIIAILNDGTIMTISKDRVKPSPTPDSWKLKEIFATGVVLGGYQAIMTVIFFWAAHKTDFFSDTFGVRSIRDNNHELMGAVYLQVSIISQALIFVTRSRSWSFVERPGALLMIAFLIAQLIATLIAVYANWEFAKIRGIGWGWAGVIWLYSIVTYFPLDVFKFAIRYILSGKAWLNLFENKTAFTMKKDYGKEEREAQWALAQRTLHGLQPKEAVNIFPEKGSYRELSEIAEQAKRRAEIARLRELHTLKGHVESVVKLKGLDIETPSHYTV
Procedure: (§1) Assay conditions are 20 mM Mops, pH: 6.5, 50 mM KCl, 8 mM MgCl2 and 3 mM ATP. Production of Pi was measured by standard […] tests. The results are shown in FIG. 12A and the activity is given as the percentage of the ATP hydrolytic activity in the absence of various concentrations of Pt (±StDev).
as §1, with “12B” for “12A”, “Ho” for “Pt”

[O]=[V]([O-])([O-])[O-] [Vanadate]
concentration at which the pumps are inhibited [1]: μM range

C/C=C(/C)C(=O)O[C@H]1C(C)=C2[C@H]([C@@H]1OC(=O)CCCCCCC)[C@@](C)(OC(C)=O)C[C@H](OC(=O)CCC)[C@@]1(O)[C@H]2OC(=O)[C@@]1(C)O [thapsigargin]
Kd [2]: sub-nanomolar range

[Ho+3] [Ho]
ATP hydrolytic activity of plasma membrane H+-ATPase [3]: inhibits
